In BindingDB's records for doi:10.1016/j.bmcl.2010.03.025 (Wyeth Research, 2010):

Target: 3-phosphoinositide-dependent protein kinase 1 (PDPK1) (Homo sapiens) (UniProt O15530)
Assay: Inhibition of PDK1

## COc1cc(Nc2c(C#N)cnc3cc(/C=C/CCN4CCN(C)CC4)c(OC)cc23)c(Cl)cc1Cl [(E)-4-(2,4-dichloro-5-methoxyphenylamino)-6-methoxy-7-(4-(4-methylpiperazin-1-yl)but-1-enyl)quinoline-3-carbonitrile]
  IC50: > 10 µM
